Earlier results as cited in patent US12194028B2 (Slayback Pharma LLC, priority 2022, dated 2025).

## COc1ccc(-n2nc(C(N)=O)c3c2C(=O)N(c2ccc(N4CCCCC4=O)cc2)CC3)cc1 [apixaban, 1-(4-methoxyphenyl)-7-oxo-6-[4-(2-oxopiperidin-1-yl)phenyl]-4,5-dihydropyrazolo [3,4-c] pyridine-3-carboxamide]
In water
  aqueous solubility: 40 to 50 µg/mL
Throughout physiological pH range of 1.0-8.0
  solubility: very low
